Target: T1, HuR (Hu antigen R, ELAVL1) (Homo sapiens, UniProt Q15717)
T1 construct: full-length HuR (FP, SPR); HuR RRM1/2 (AlphaLISA, SPR)
Assay: FP competition with fluorescein-labeled ARE-Msi1 RNA; SPR direct binding to immobilized HuR; AlphaLISA (Ki […]); CETSA in MDA-MB-231 cells

T1 sequence (Q15717 2-326): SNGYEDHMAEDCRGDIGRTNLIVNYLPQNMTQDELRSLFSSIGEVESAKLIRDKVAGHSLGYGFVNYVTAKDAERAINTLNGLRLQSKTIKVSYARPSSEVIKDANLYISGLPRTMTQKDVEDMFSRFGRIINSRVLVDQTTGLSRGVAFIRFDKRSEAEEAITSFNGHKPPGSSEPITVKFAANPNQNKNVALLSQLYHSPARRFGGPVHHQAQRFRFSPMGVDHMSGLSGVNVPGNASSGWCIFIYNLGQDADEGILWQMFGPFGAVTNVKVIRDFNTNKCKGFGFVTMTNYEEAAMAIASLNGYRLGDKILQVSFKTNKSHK

## CC(C)(C)c1ccc(S(=O)(=O)Nc2ccc3sc(/C=C/C(=O)NO)cc3c2)cc1 [KH-3, (E)-3-(5-((4-(tert-Butyl)phenyl)sulfonamido)benzo[b]thiophen-2-yl)-N-hydroxyacrylamide]
  Ki: 0.83 µM

— paper PMC7181695, “Targeting the interaction between RNA-binding protein HuR and FOXQ1 suppresses breast cancer invasion and metastasis” (Communications Biology, 2020)
